Test results published in publication PMC8398766, “Do Small Molecules Activate the TrkB Receptor in the Same Manner as BDNF? Limitations of Published TrkB Low Molecular Agonists and Screening for Novel TrkB Orthosteric Agonists” (Pharmaceuticals, 2021).
“Also recorded” adds a separate entry of the source.

Columns and labels:
[1] = system: TrkB receptor and downstream proteins (PLCγ1, Akt1, ERK1/2); experiment: Pharmacodynamics: immunoblot of hippocampus and frontal cortex; format: in vivo, BALB/c mice; conditions: 30 min and 2 h after 50 mg/kg p.o.
Description: (§1) Compound treatment was stopped by lysing cells with N-PER™ Neuronal Protein Extraction Reagent (Thermo Fisher Scientific) containing 1 × PhosSTOP™ (Roche, Basel, Switzerland), 1 × Halt Protease Inhibitor Single-Use Cocktail (ThermoFisher Scientific) and 5 mM EDTA. The lysates were collected by scraping, and centrifuged (8000× g; 10 min at 4 °C), and the protein concentration was determined using a BCA Pierce kit (ThermoFisher Scientific). The lysates were stored at −80 °C until further processing. Samples containing 20 μg of protein were further denatured in 4 × Laemli Buffer with 5% β-mercaptoethanol at 95 °C for 5 min and electrophoresed on gels prepared using a 10% TGX Stain-Free™ FastCast™ Acrylamide Kit (Bio-Rad). Afterwards, the proteins were transferred (wet transfer, 100 V, 60 min) onto nitrocellulose membranes (GE Healthcare, Chicago, IL, USA), which were blocked in 5% BSA in TBS-T (TBS + 0.1% Tween20) for 2 h. […] After repeated washes (TBS-T), the proteins were detected with HRP-conjugated anti-rabbit antibodies (1:4000, RT, 2 h) (Cell Signaling Technology), and the blots were incubated with Clarity Max ECL Western Blotting Substrate (Bio-Rad). Blot images and chemiluminescence signals were captured using a ChemiDoc MP Imaging System, and densitometry values were calculated using the Image Lab software (Bio-Rad). […]

A1 = biological target: T1, A1 (Homo sapiens, UniProt P30542); experiment: BioPrint Profile Panel; conditions: Agonist, Receptor, read-out: % Inhibition of Control Specific Binding
T1 construct: purchased Eurofins Discovery (Cerep) BioPrint Profile Panel
Source text: (§2) The BioPrint® Profile Panel service offered by Eurofins Discovery (Poitiers, France) was chosen to perform selectivity analysis.

ACE = biological target: T2, ACE (Homo sapiens, UniProt P12821); experiment: BioPrint Profile Panel; format: biochemical; conditions: Non-Kinase Enzyme, read-out: % of specific inhibition
T2 construct: purchased Eurofins Discovery (Cerep) BioPrint Profile Panel
Source text: as §2

ACE-2 = biological target: T3, ACE-2 (Homo sapiens, UniProt Q9BYF1); experiment: BioPrint Profile Panel; format: biochemical; conditions: Non-Kinase Enzyme, read-out: % of specific inhibition
T3 construct: purchased Eurofins Discovery (Cerep) BioPrint Profile Panel
Source text: as §2

ATPase (Na+/K+) = experiment: BioPrint Profile Panel; format: biochemical; conditions: 10 μM; Non-Kinase Enzyme
Source text: as §2

COX2 = biological target: T4, COX2 (Homo sapiens, UniProt P35354); experiment: BioPrint Profile Panel; format: biochemical; conditions: Non-Kinase Enzyme
T4 construct: purchased Eurofins Discovery (Cerep) BioPrint Profile Panel
Source text: as §2

ERK2 = biological target: T5, ERK2 (Homo sapiens, UniProt P28482); experiment: BioPrint Profile Panel; format: biochemical; conditions: Kinase, read-out: % of specific inhibition
T5 construct: purchased Eurofins Discovery (Cerep) BioPrint Profile Panel
Source text: as §2

FLT-1 kinase = biological target: T6, FLT-1 kinase (Homo sapiens, UniProt P17948); experiment: BioPrint Profile Panel; format: biochemical; conditions: read-out: % of specific inhibition
T6 construct: purchased Eurofins Discovery (Cerep) BioPrint Profile Panel
Source text: as §2

Fyn kinase = biological target: T7, Fyn kinase (Homo sapiens, UniProt P06241); experiment: BioPrint Profile Panel; format: biochemical; conditions: read-out: % of specific inhibition
T7 construct: purchased Eurofins Discovery (Cerep) BioPrint Profile Panel
Source text: as §2

Guanylyl cyclase = experiment: BioPrint Profile Panel; format: biochemical; conditions: 10 μM; Activator effect
Source text: as §2

HIV-1 protease = experiment: BioPrint Profile Panel; format: biochemical; conditions: 10 μM; Non-Kinase Enzyme
Source text: as §2

IRK = biological target: T8, IRK (Homo sapiens, UniProt P06213); experiment: BioPrint Profile Panel; format: biochemical; conditions: Kinase, read-out: % of specific inhibition
T8 construct: purchased Eurofins Discovery (Cerep) BioPrint Profile Panel
Source text: as §2

Lyn A kinase = biological target: T9, Lyn A kinase (Homo sapiens, UniProt P07948); experiment: BioPrint Profile Panel; format: biochemical
T9 construct: purchased Eurofins Discovery (Cerep) BioPrint Profile Panel
Source text: as §2

MMP-9 = biological target: T10, MMP-9 (Homo sapiens, UniProt P14780); experiment: BioPrint Profile Panel; format: biochemical; conditions: Non-Kinase Enzyme, read-out: % Inhibition of Control Specific Binding
T10 construct: purchased Eurofins Discovery (Cerep) BioPrint Profile Panel
Source text: as §2

PDE3B = biological target: T11, PDE3B (Homo sapiens, UniProt Q13370); experiment: BioPrint Profile Panel; format: biochemical; conditions: Non-Kinase Enzyme, read-out: % of specific inhibition
T11 construct: purchased Eurofins Discovery (Cerep) BioPrint Profile Panel
Source text: as §2

PDE6 = experiment: BioPrint Profile Panel; format: biochemical; conditions: 10 μM; Non-Kinase Enzyme
Source text: as §2

ZAP70 kinase = biological target: T12, ZAP70 kinase (Homo sapiens, UniProt P43403); experiment: BioPrint Profile Panel; format: biochemical; conditions: read-out: % of specific inhibition
T12 construct: purchased Eurofins Discovery (Cerep) BioPrint Profile Panel
Source text: as §2

acetylcholinesterase = biological target: T13, acetylcholinesterase (Homo sapiens, UniProt P22303); experiment: BioPrint Profile Panel; format: biochemical; conditions: Non-Kinase Enzyme, read-out: % of specific inhibition
T13 construct: purchased Eurofins Discovery (Cerep) BioPrint Profile Panel
Source text: as §2

ERK1/2 and Akt1 = experiment: Immunoblot, non-differentiated SH-SY5Y cells; format: cell-based
Description: The SH-SY5Y cell line was purchased from MilliporeSigma and cultured in growth medium: MEM (w/Earle’s Salts; w/L-Glutamine) + Ham’s F12 (w/L-Glutamine) (1:1 v/v), 1 × Antibiotic-Antimycotic, 1 × MEM Non-Essential Amino Acids (all reagents from Biowest, Riverside, MO, USA) and 15% FBS (Gibco, Thermo Fisher Scientific, Waltham, MA, USA). Cells were passaged using 0.25% Trypsin-EDTA (Biowest) and cultured in standard conditions (5% CO2, 37 °C with 95% relative humidity).
as §1, with “processing.” for “processing. Samples containing 20 μg of protein were further denatured in 4 × Laemli Buffer with 5% β-mercaptoethanol at 95 °C for 5 min and electrophoresed on gels prepared using a 10% TGX Stain-Free™ FastCast™ Acrylamide Kit (Bio-Rad). Afterwards, the proteins were transferred (wet transfer, 100 V, 60 min) onto nitrocellulose membranes (GE Healthcare, Chicago, IL, USA), which were blocked in 5% BSA in TBS-T (TBS + 0.1% Tween20) for 2 h.”

[2] = read-out: % Inhibition of Control Specific Binding

T4 sequence (P35354 18-604): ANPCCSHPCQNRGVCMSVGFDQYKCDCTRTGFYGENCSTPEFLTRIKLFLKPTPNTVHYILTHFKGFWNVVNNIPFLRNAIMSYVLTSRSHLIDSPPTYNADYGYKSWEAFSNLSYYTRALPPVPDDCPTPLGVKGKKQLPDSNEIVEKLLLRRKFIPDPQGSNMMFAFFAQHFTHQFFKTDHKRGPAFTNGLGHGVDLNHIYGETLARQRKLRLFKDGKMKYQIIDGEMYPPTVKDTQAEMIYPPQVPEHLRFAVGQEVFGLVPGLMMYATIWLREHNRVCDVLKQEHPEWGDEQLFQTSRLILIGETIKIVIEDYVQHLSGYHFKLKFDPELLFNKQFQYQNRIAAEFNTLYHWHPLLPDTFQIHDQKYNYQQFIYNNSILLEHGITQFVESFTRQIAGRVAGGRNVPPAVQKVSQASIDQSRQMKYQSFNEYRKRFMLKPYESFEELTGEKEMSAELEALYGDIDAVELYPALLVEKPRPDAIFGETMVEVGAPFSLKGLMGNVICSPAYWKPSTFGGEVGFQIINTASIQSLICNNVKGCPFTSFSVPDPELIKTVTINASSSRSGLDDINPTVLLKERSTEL
T9 sequence (P07948 whole entry): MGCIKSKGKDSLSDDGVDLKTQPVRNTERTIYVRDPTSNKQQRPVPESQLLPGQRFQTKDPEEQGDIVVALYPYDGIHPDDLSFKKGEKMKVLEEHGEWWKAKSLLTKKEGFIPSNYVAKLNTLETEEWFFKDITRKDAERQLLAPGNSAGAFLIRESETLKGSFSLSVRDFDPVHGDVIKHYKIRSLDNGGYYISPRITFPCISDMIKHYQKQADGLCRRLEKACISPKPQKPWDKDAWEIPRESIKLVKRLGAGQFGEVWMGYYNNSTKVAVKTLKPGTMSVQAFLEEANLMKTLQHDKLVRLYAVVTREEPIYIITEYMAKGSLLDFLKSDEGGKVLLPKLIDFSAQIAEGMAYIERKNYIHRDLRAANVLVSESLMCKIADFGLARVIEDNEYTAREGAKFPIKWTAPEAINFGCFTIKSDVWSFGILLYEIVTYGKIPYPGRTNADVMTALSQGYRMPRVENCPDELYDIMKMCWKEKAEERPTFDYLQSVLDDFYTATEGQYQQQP
T13 sequence (P22303 32-614): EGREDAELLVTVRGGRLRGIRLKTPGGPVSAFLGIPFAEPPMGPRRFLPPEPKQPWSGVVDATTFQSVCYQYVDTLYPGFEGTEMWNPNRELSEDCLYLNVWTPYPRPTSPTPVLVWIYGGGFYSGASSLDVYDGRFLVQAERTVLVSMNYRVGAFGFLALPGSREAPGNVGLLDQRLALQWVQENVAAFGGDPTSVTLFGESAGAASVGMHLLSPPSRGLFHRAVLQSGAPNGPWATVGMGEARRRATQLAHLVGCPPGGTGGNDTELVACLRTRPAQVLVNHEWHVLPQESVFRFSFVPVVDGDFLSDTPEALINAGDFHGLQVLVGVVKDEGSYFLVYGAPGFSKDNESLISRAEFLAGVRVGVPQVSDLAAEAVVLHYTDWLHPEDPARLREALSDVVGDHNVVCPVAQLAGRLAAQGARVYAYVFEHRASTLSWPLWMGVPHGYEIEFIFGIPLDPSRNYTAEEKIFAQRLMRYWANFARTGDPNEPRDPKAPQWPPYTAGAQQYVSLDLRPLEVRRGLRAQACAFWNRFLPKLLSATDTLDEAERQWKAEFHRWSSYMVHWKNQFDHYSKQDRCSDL
T5 sequence (P28482 whole entry): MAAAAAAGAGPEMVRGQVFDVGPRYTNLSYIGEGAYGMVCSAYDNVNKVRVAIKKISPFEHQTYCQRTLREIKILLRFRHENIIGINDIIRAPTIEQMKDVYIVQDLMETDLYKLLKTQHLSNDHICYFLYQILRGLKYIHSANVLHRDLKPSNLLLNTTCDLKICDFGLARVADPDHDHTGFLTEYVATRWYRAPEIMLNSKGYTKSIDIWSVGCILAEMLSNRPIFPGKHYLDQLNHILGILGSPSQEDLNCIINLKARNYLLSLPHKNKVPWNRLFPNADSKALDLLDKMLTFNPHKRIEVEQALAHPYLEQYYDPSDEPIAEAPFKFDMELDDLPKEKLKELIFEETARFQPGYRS
T10 sequence (P14780 94-707): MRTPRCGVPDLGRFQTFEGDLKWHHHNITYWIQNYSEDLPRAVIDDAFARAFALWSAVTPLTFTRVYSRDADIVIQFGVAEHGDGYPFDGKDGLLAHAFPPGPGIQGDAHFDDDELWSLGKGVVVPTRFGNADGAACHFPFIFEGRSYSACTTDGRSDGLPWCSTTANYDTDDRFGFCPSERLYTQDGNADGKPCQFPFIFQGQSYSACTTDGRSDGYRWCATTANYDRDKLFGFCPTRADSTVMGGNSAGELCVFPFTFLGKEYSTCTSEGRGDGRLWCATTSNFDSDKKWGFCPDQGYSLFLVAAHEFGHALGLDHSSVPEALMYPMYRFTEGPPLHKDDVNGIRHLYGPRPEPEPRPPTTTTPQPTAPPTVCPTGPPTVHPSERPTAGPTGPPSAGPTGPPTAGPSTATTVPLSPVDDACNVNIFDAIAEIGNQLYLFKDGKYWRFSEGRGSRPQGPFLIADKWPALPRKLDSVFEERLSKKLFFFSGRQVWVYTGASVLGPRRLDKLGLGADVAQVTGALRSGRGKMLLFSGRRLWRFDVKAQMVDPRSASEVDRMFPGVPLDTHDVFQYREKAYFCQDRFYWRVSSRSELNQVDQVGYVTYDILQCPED
T1 sequence (P30542 whole entry): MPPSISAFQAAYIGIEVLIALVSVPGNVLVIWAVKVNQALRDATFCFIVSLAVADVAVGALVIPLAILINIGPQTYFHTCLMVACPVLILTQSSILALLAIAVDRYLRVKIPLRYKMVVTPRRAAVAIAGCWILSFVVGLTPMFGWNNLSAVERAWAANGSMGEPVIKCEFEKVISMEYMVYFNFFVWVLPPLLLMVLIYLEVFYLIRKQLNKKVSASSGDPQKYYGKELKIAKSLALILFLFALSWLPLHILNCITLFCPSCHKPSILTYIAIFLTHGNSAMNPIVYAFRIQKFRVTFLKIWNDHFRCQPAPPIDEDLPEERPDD
T11 sequence (Q13370 whole entry): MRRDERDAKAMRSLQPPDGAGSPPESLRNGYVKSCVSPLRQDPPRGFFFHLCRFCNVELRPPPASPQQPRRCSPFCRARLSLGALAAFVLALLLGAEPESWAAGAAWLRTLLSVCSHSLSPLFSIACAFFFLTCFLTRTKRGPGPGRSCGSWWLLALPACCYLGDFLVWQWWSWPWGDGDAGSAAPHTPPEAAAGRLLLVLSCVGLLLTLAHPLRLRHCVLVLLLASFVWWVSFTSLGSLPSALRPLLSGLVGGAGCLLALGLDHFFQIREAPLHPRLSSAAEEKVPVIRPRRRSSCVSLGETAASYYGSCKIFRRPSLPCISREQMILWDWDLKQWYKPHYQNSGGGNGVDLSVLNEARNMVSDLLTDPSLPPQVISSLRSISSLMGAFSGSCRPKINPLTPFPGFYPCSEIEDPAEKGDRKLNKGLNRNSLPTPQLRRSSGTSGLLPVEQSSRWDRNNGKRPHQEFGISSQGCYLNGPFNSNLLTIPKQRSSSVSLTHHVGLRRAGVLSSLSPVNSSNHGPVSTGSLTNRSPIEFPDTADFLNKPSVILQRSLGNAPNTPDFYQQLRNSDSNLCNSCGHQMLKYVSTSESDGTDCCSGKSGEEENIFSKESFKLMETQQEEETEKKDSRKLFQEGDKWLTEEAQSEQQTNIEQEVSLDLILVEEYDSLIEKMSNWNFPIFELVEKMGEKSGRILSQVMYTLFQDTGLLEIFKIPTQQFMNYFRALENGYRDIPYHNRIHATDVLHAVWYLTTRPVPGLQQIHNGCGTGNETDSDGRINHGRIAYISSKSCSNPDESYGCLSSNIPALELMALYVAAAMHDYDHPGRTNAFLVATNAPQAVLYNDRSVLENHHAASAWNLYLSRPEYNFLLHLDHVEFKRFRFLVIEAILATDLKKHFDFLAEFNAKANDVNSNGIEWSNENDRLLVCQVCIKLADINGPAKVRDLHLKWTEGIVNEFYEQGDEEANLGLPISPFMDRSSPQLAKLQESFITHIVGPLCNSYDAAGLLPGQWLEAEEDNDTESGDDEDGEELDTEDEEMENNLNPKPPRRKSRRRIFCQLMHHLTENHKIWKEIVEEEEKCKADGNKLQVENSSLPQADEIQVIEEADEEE
T12 sequence (P43403 whole entry): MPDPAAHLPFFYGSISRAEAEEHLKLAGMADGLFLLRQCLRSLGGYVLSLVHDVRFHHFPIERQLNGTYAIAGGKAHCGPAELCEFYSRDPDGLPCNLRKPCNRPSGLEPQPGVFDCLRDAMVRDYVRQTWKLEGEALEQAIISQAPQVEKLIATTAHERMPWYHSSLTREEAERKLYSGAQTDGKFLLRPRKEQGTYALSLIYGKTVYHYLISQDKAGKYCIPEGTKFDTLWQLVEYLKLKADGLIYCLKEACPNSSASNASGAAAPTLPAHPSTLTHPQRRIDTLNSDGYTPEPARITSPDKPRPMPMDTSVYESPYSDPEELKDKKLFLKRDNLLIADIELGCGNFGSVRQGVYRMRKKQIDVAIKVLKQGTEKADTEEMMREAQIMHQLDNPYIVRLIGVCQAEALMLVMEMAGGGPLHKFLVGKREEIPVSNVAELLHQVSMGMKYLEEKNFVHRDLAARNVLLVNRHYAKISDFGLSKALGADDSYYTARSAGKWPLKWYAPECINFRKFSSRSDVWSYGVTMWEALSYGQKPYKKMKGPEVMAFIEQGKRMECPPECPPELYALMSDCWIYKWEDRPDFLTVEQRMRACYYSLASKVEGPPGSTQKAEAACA

O=c1cc(-c2ccccc2)oc2c(O)c(O)ccc12 [7,8-DHF, 7,8-dihydroxyflavone]
Activation of the TrkB receptor (phosphorylation) [1]: did not observe any activation; also recorded: no effect | PLCγ1, Akt1, and ERK1/2 phosphorylation [1]: no impact | inhibition at 10 µM (A1): 99% | inhibition at 10 µM (ACE): 5% | inhibition at 10 µM (ACE-2): -8% | % of specific inhibition (ATPase (Na+/K+)): -2% | % Inhibition of Control Specific Binding (COX2; 10 μM): 81.6% | inhibition at 10 µM (COX2; [2]): 82% | inhibition at 10 µM (ERK2): -23% | inhibition at 10 µM (FLT-1 kinase): 17% | inhibition at 10 µM (Fyn kinase): 21% | % of specific inhibition (Guanylyl cyclase): 2% | % of specific inhibition (HIV-1 protease): 1% | inhibition at 10 µM (IRK): 12% | % Inhibition of Control Specific Binding (Lyn A kinase; 10 μM): 52.6% | inhibition at 10 µM (Lyn A kinase; [2]): 53% | inhibition at 10 µM (MMP-9): 72% | inhibition at 10 µM (PDE3B): 11% | % of specific inhibition (PDE6): 30% | inhibition at 10 µM (ZAP70 kinase): 4% | inhibition at 10 µM (acetylcholinesterase): 5%

C=CC(C)(C)c1[nH]c2ccccc2c1C1=C(O)C(=O)C(c2c[nH]c3c(CC=C(C)C)cccc23)=C(O)C1=O [DMAQ-B1]
Phosphorylation of ERK1/2 and Akt1 (ERK1/2 and Akt1): significantly induce
